From patent US12247011B2, “Selective inhibitors of NLRP3 inflammasome” (NodThera Limited, priority 2017, dated 2025)
Structures can show the parent of a compound that is named as a salt.

System: IL-1β release upon NLRP3 activation in peripheral blood mononuclear cells (PBMC)
Test: PBMC IC50 Determination Assay
Assay type: cell-based
Conditions: Homo sapiens, PBMC, read-out: PBMC IC50
Method: PBMC IC50 Determination Assay
The compounds of the present disclosure were tested for their inhibitory activity against IL-1β release upon NLRP3 activation in peripheral blood mononuclear cells (PBMC).
Isolated cells were seeded into the wells of a 96-well plate and incubated for 3 h with lipopolysaccharide (LPS). Following medium exchange, the compounds of the present disclosure were added (a single compound per well) and the cells were incubated for 30 min. Next, the cells were stimulated either with ATP (5 mM) or nigericin (10 μM) for 1 h and the cell culture media from the wells were collected for further analysis.
The release of IL-1β into the media was determined by a quantitative detection of IL-1β in the media using an IL-1β enzyme-linked immunosorbent assay (ELISA) Ready-SET-Go!, eBioscience cat. […] Subsequently, plates were blocked with blocking buffer for 1 h at room temperature (rt) and after washing with a buffer (PBS with 0.05% Tween-20) incubated with protein standard and culture media. […] Plates were washed and incubated with HRP-streptavidin for 30 min at rt and washed again. The signal was developed after addition of 3,3,5,5-tetramethylbenzidine-peroxidase (TMB) until colour appeared and the reaction was stopped by 2 M H2SO4. A microplate spectrophotometer (BioTek) was used to detect signals with 450 nm. The detection range of IL-1β ELISA was 2-150 ng/ml.

For `CN(C)Cc1cnn(C[C@@H](OC(=O)Nc2c3c(cc4c2CCC4)CCC3)C(=O)O)c1` [Compound 98, (2R)-3-{4-[(dimethylamino)methyl]-1H-pyrazol-1-yl}-2-{[(1,2,3,5,6,7-hexahydro-s-indacen-4-yl)carbamoyl]oxy}propanoic acid hydrochloride], the IC50 was 1000 to 10000 nM.

Same assay, conditions: Homo sapiens; LPS-primed PBMC, 30 min compound, stimulated with ATP (5 mM) or nigericin (10 μM) for 1 h; IL-1β ELISA; read-out: PBMC IC50

Compared with `CC(C)COC(=O)COC(=O)Nc1c2c(cc3c1CCC3)CCC2` [Compound 24, 2-methylpropyl 2-{[(1,2,3,5,6,7-hexahydro-s-indacen-4-yl)carbamoyl]oxy}acetate], `CCOC(=O)[C@@H](C)OC(=O)Nc1c2c(cc3c1CCC3)CCC2` [Compound 19, Ethyl (2R)-2-{[(1,2,3,5,6,7-hexahydro-s-indacen-4-yl)carbamoyl]oxy}propanoate] is higher in IC50: 100 to 1000 nM for the first, 1000 to 10000 nM for the second.

`CCOC(=O)C(Cn1cccn1)OC(=O)Nc1c(F)ccc(F)c1F` (stereo not shown) [Compound 63, Ethyl 3-(1H-pyrazol-1-yl)-2-{[(2,3,6-trifluorophenyl)carbamoyl]oxy}propanoate] and `CCOC(=O)C(Cn1cccn1)OC(=O)Nc1c(F)cc(F)cc1F` (stereo not shown) [Compound 73, Ethyl 3-(1H-pyrazol-1-yl)-2-{[(2,4,6-trifluorophenyl)carbamoyl]oxy}propanoate] fall in the same range of IC50: 100 to 1000 nM for the first, 100 to 1000 nM for the second.

First: CC(C)OC(=O)C(Cc1ccnnc1)OC(=O)Nc1c2c(cc3c1CCC3)CCC2 (stereo not shown) [Compound 128, Propan-2-yl 2-{[(1,2,3,5,6,7-hexahydro-s-indacen-4-yl)carbamoyl]oxy}-3-(pyridazin-4-yl)propanoate]
Second: Cc1cnc(CC(OC(=O)Nc2c3c(cc4c2CCC4)CCC3)C(=O)OC(C)C)cn1 (stereo not shown) [Compound 121, Propan-2-yl 2-{[(1,2,3,5,6,7-hexahydro-s-indacen-4-yl)carbamoyl]oxy}-3-(5-methylpyrazin-2-yl)propanoate]
The IC50 of the first is higher: 100 to 1000 nM for the first, 10 to 100 nM for the second. The second is the more potent here.

`CCOC(=O)C(Cn1cccn1)OC(=O)Nc1c(F)cccc1CC` (stereo not shown) [Compound 66, Ethyl 2-{[(2-ethyl-6-fluorophenyl)carbamoyl]oxy}-3-(1H-pyrazol-1-yl)propanoate] and `CCOC(=O)C(Cn1cccn1)OC(=O)Nc1c(CC)cccc1CC` (stereo not shown) [Compound 48, Ethyl 2-{[(2,6-diethylphenyl)carbamoyl]oxy}-3-(1H-pyrazol-1-yl)propanoate] fall in the same range of IC50: 100 to 1000 nM for the first, 100 to 1000 nM for the second.

`CCOC(=O)[C@@H](Cc1cccc(-n2cccn2)c1)OC(=O)Nc1c2c(cc3c1CCC3)CCC2` [Compound 43, Ethyl (2R)-2-{[(1,2,3,5,6,7-hexahydro-s-indacen-4-yl)carbamoyl]oxy}-3-[3-(1H-pyrazol-1-yl)phenyl]propanoate] and `CCOC(=O)C(Cc1ccccc1)OC(=O)Nc1c2c(cc3c1CCC3)CCC2` (stereo not shown) [Compound 17, Ethyl 2-(((1,2,3,5,6,7-hexahydro-s-indacen-4-yl)carbamoyl)oxy)-3-phenylpropanoate] fall in the same range of IC50: 100 to 1000 nM for the first, 100 to 1000 nM for the second.

First: CCOC(=O)C(Cn1cc(F)cn1)OC(=O)Nc1c2c(cc3c1CCC3)CCC2 (stereo not shown) [Compound 80, Ethyl 3-(4-fluoro-1H-pyrazol-1-yl)-2-{[(1,2,3,5,6,7-hexahydro-s-indacen-4-yl)carbamoyl]oxy}propanoate]
Second: CCOC(=O)C(Cn1cc(OC)cn1)OC(=O)Nc1c2c(cc3c1CCC3)CCC2 (stereo not shown) [Compound 92, Ethyl 2-{[(1,2,3,5,6,7-hexahydro-s-indacen-4-yl)carbamoyl]oxy}-3-(4-methoxy-1H-pyrazol-1-yl)propanoate]
The IC50 of the first is lower: 10 to 100 nM for the first, 100 to 1000 nM for the second. The first is the more potent here.

`CCOC(=O)C(Cc1cccnc1)OC(=O)Nc1c2c(cc3c1CCC3)CCC2` (stereo not shown) [Compound 12, Ethyl 2-{[(1,2,3,5,6,7-hexahydro-s-indacen-4-yl)carbamoyl]oxy}-3-(pyridin-3-yl)propanoate] and `CCOC(=O)C(Cn1ccc(C)n1)OC(=O)Nc1c2c(cc3c1CCC3)CCC2` (stereo not shown) [Compound 72, Ethyl 2-{[(1,2,3,5,6,7-hexahydro-s-indacen-4-yl)carbamoyl]oxy}-3-(3-methyl-1H-pyrazol-1-yl)propanoate] fall in the same range of IC50: 10 to 100 nM for the first, 10 to 100 nM for the second.

First: CCOC(=O)C(Cn1cccn1)OC(=O)Nc1c(Cl)cccc1C#N (stereo not shown) [Compound 59, Ethyl 2-{[(2-chloro-6-cyanophenyl)carbamoyl]oxy}-3-(1H-pyrazol-1-yl)propanoate]
Second: CCOC(=O)C(Cn1cccn1)OC(=O)Nc1c(Cl)cccc1Cl (stereo not shown) [Compound 52, Ethyl 2-{[(2,6-dichlorophenyl)carbamoyl]oxy}-3-(1H-pyrazol-1-yl)propanoate]
The IC50 of the first is higher: > 10000 nM for the first, 1000 to 10000 nM for the second. The second is the more potent here.

Compared with `CCOC(=O)COC(=O)Nc1cc(C(F)(F)F)ccc1Cl` [Compound 35, Ethyl 2-({[2-chloro-5-(trifluoromethyl)phenyl]carbamoyl}oxy)acetate], `CCOC(=O)COC(=O)Nc1c(Cl)cccc1Cl` [Compound 3, Ethyl 2-{[(2,6-dichlorophenyl)carbamoyl]oxy}acetate] is lower in IC50: > 10000 nM for the first, 100 to 1000 nM for the second. The second is the more potent here.

`CC(C)OC(=O)C(Cc1ncccn1)OC(=O)Nc1c(Cl)cccc1Cl` (stereo not shown) [Compound 125, Propan-2-yl 2-{[(2,6-dichlorophenyl)carbamoyl]oxy}-3-(pyrimidin-2-yl)propanoate] and `CC1CCCC(NC(=O)OC(Cc2ncccn2)C(=O)OC(C)C)C1` (stereo not shown) [Compound 118, Propan-2-yl 2-{[(3-methylcyclohexyl)carbamoyl]oxy}-3-(pyrimidin-2-yl)propanoate] fall in the same range of IC50: 1000 to 10000 nM for the first, 1000 to 10000 nM for the second.

`CCOC(=O)C(Cn1cccn1)OC(=O)NC1CCCCC1C` (stereo not shown) [Compound 87, Ethyl 2-{[(2-methylcyclohexyl)carbamoyl]oxy}-3-(1H-pyrazol-1-yl)propanoate] and `CCOC(=O)C(Cn1cccn1)OC(=O)NC1CCCCC1` (stereo not shown) [Compound 53, ethyl 2-[(cyclohexylcarbamoyl)oxy]-3-(1H-pyrazol-1-yl)-propanoate] fall in the same range of IC50: 1000 to 10000 nM for the first, 1000 to 10000 nM for the second.

First: CC(C)OC(=O)C(Cc1ncc(C#N)cn1)OC(=O)Nc1c2c(cc3c1CCC3)CCC2 (stereo not shown) [Compound 130, Propan-2-yl 3-(5-cyanopyrimidin-2-yl)-2-{[(1,2,3,5,6,7-hexahydro-s-indacen-4-yl)carbamoyl]oxy}propanoate]
Second: CCOC(=O)[C@@H](COC(C)C)OC(=O)Nc1c2c(cc3c1CCC3)CCC2 [Compound 104, Ethyl (2R)-2-{[(1,2,3,5,6,7-hexahydro-s-indacen-4-yl)carbamoyl]oxy}-3-(propan-2-yloxy)propanoate]
The IC50 of the first is lower: 10 to 100 nM for the first, 1000 to 10000 nM for the second.

`CCOC(=O)COC(=O)Nc1c(C)cccc1CC` [Compound 16, Ethyl 2-(((2-ethyl-6-methylphenyl)carbamoyl)oxy)acetate] and `CCOC(=O)COC(=O)Nc1c(CC)cccc1CC` [Compound 9, Ethyl 2-{[(2,6-diethylphenyl)carbamoyl]oxy}acetate] fall in the same range of IC50: 100 to 1000 nM for the first, 100 to 1000 nM for the second.

First: COCC(OC(=O)Nc1c2c(cc3c1CCC3)CCC2)C(=O)O (stereo not shown) [Compound 38, 2-{[(1,2,3,5,6,7-hexahydro-s-indacen-4-yl)carbamoyl]oxy}-3-methoxypropanoic acid]
Second: CCOC(=O)[C@@H](Cn1cnc(C)n1)OC(=O)Nc1c2c(cc3c1CCC3)CCC2 [Compound 105, Ethyl (2R)-2-{[(1,2,3,5,6,7-hexahydro-s-indacen-4-yl)carbamoyl]oxy}-3-(3-methyl-1H-1,2,4-triazol-1-yl)propanoate]
The IC50 of the first is higher: 1000 to 10000 nM for the first, 10 to 100 nM for the second.

Compared with `CCOC(=O)COC(=O)Nc1c(CC)cc(C)cc1CC` [Compound 28, Ethyl 2-{[(2,6-diethyl-4-methylphenyl)carbamoyl]oxy}acetate], `CCOC(=O)COC(=O)Nc1c(C)cccc1C` [Compound 8, Ethyl 2-{[(2,6-dimethylphenyl)carbamoyl]oxy}acetate] is lower in IC50: 1000 to 10000 nM for the first, 100 to 1000 nM for the second.
